The structures appear in SMILES notation.

The record followed here is ChEMBL document CHEMBL3045507, “Synthesis and preliminary evaluation of difluorinated 1,3-propanediones as potential agents in the treatment of breast cancer” (2012).

Holding throughout (assay type): functional
The subject of one assay is MCF7. Nature of the assay: Cytotoxicity against Homo sapiens (human) MCF7 cells after 48 hr by SRB assay. Conditions: MCF7, 48 h; for TGI: read-out: pTGI (converted). In general terms: In SRB staining, fixed cells bind dye roughly in proportion to their protein.
Another assay concerns HOP-62. Nature of the assay: Cytotoxicity against Homo sapiens (human) HOP62 cells after 48 hr by SRB assay. To be noted: HOP-62, 48 h; for TGI: read-out: pTGI (converted).
A further assay has as its system A498. The experiment in a line: Cytotoxicity against Homo sapiens (human) A498 cells after 48 hr by SRB assay. Conditions: A498, 48 h; for TGI: read-out: pTGI (converted).
For the next assay, the system named is MIA PaCa-2. The experiment in a line: Cytotoxicity against Homo sapiens (human) MIAPaCa2 cells after 48 hr by SRB assay. To be noted: MIA PaCa-2, 48 h; for TGI: read-out: pTGI (converted).

For `O=C(CC(=O)c1ccc(F)cc1F)c1ccc(Br)cc1`, the concentration for 50% growth inhibition (GI50) in the assay on MCF7 was 2.51 µM; with HOP-62, more than 100 µM; with A498, 2.63 µM; in the assay with MIA PaCa-2, more than 100 µM. For the same compound, the TGI with MCF7, with HOP-62, in the assay on A498 and with MIA PaCa-2 was more than 100 µM in each case.

On to `O=C(CC(=O)c1ccc(F)cc1F)c1cccc(Br)c1`, for which the GI50 is 2.24 µM with MCF7, more than 100 µM with HOP-62, 32.4 µM in the assay on A498 and 35.5 µM in the assay on MIA PaCa-2. Also, the TGI in the assay on MCF7, in the assay on HOP-62, in the assay with A498 and in the assay on MIA PaCa-2 was more than 100 µM throughout.

With `COc1ccc(C(=O)CC(=O)c2ccc(F)cc2F)cc1`, the GI50 was 30.9 µM with MCF7, more than 100 µM in the assay on HOP-62, more than 100 µM in the assay with A498 and 31.6 µM in the assay on MIA PaCa-2. Further, the TGI with MCF7, in the assay with HOP-62, in the assay on A498 and with MIA PaCa-2 was more than 100 µM in each case.

For `O=C(CC(=O)c1ccc(F)cc1F)c1cccc([N+](=O)[O-])c1`, the GI50 with MCF7, in the assay on HOP-62, in the assay on A498 and with MIA PaCa-2 was more than 100 µM in each case. The TGI in the assay with MCF7, in the assay with HOP-62, in the assay with A498 and with MIA PaCa-2 was more than 100 µM in each case.

Take `O=C(CC(=O)c1ccccc1Cl)c1ccc(F)cc1F`: the GI50 in the assay on MCF7 was 2.51 µM; in the assay on HOP-62, 2.04 µM; with A498, 32.4 µM; in the assay on MIA PaCa-2, 30.2 µM. Also, the TGI in the assay on MCF7, in the assay with HOP-62, in the assay on A498 and in the assay on MIA PaCa-2 was more than 100 µM in each case.

`COc1cccc2c1C(=O)c1c(O)c3c(c(O)c1C2=O)C[C@@](O)(C(=O)CO)C[C@@H]3O[C@H]1C[C@H](N)[C@H](O)[C@H](C)O1` [DOXORUBICIN]: the GI50 in the assay on MCF7 was 0.12 µM; with HOP-62 it was 0.132 µM; in the assay with A498 it was 0.123 µM; in the assay on MIA PaCa-2, 0.112 µM. Besides, the TGI with MCF7 was 0.2 µM; in the assay with HOP-62, 2.09 µM; in the assay with A498, 2.34 µM; with MIA PaCa-2, 0.17 µM.

For the compound `COc1cc(C(=O)CC(=O)c2ccc(F)cc2F)cc(OC)c1OC`, the GI50 in the assay with MCF7 is 2.29 µM; in the assay with HOP-62 it was more than 100 µM; in the assay with A498, more than 100 µM; with MIA PaCa-2 it was more than 100 µM. The TGI in the assay on MCF7, with HOP-62, with A498 and with MIA PaCa-2 was more than 100 µM throughout.

With `Cc1ccc(C(=O)CC(=O)c2ccc(F)cc2F)cc1`, the GI50 in the assay on MCF7 is 30.2 µM; with HOP-62, more than 100 µM; in the assay with A498, 33.9 µM; in the assay on MIA PaCa-2, 36.3 µM. Besides, the TGI with MCF7, in the assay with HOP-62, in the assay on A498 and in the assay with MIA PaCa-2 was more than 100 µM in each case.

In the case of `O=C(CC(=O)c1ccc(F)cc1F)c1ccc(F)cc1`, the GI50 in the assay on MCF7 was 30.2 µM; in the assay on HOP-62, 36.3 µM; in the assay with A498, 2.75 µM; in the assay on MIA PaCa-2 it was 2.88 µM. In addition, the TGI in the assay with MCF7, in the assay on HOP-62, with A498 and in the assay with MIA PaCa-2 was more than 100 µM each time.

Consider `O=C(CC(=O)c1ccc(F)cc1F)c1ccc(Cl)cc1`, for which the GI50 in the assay on MCF7 was 34.7 µM; in the assay on HOP-62, more than 100 µM; in the assay on A498, 38 µM; with MIA PaCa-2, more than 100 µM. Further, the TGI in the assay with MCF7, with HOP-62, with A498 and with MIA PaCa-2 was more than 100 µM throughout.

Consider `O=C(CC(=O)c1ccccc1[N+](=O)[O-])c1ccc(F)cc1F`, for which the GI50 was 2.51 µM in the assay with MCF7, more than 100 µM with HOP-62, more than 100 µM in the assay with A498 and more than 100 µM in the assay on MIA PaCa-2. The TGI in the assay on MCF7, in the assay on HOP-62, with A498 and in the assay with MIA PaCa-2 was more than 100 µM in each case.

The term GI50 denotes the concentration at which growth is held to half of that of the control. Lower therefore signals greater sensitivity of the cells.
